Assay results as given in PubChem BioAssay (NCI).
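Step 1: Grow cells in 96-well plates. Step 2: Expose to compound for 48 hours at 5 concentrations. Step 3: Interpolate endpoints linearly; if unreached, use highest concentration. GI50 = concentration required for 50% inhibition of growth. The concentration for full growth arrest is given as TGI.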

Assays:
Test in all cases: inhibition of tumour cell growth, NCI panel, 48 h
HCT-116 colon = test system: HCT-116 colon
RXF 393 renal = test system: RXF 393 renal
RPMI-8226 leukemia = test system: RPMI-8226 leukemia
MDA-MB-231 breast = test system: MDA-MB-231 breast
SR leukemia = test system: SR leukemia
MCF7 breast = test system: MCF7 breast
M14 melanoma = test system: M14 melanoma
SK-MEL-5 melanoma = test system: SK-MEL-5 melanoma
HCC-2998 colon = test system: HCC-2998 colon
NCI-H522 lung = test system: NCI-H522 lung
OVCAR-4 ovarian = test system: OVCAR-4 ovarian
OVCAR-8 ovarian = test system: OVCAR-8 ovarian
786-0 renal = test system: 786-0 renal
K-562 leukemia = test system: K-562 leukemia
BT-549 breast = test system: BT-549 breast
OVCAR-3 ovarian = test system: OVCAR-3 ovarian
PC-3 prostate = test system: PC-3 prostate
SK-OV-3 ovarian = test system: SK-OV-3 ovarian
HCT-15 colon = test system: HCT-15 colon
HL-60(TB) leukemia = test system: HL-60(TB) leukemia
NCI-H23 lung = test system: NCI-H23 lung
T-47D breast = test system: T-47D breast
TK-10 renal = test system: TK-10 renal
KM12 colon = test system: KM12 colon
HOP-62 NSCLC = test system: HOP-62 NSCLC
MDA-MB-435 = test system: MDA-MB-435
A498 renal = test system: A498 renal
CCRF-CEM leukemia = test system: CCRF-CEM leukemia
SN12C renal = test system: SN12C renal
SNB-75 CNS = test system: SNB-75 CNS
NCI/ADR-RES ovarian = test system: NCI/ADR-RES ovarian
UO-31 renal = test system: UO-31 renal
OVCAR-5 ovarian = test system: OVCAR-5 ovarian
HOP-92 NSCLC = test system: HOP-92 NSCLC
EKVX NSCLC = test system: EKVX NSCLC
MOLT-4 leukemia = test system: MOLT-4 leukemia
IGROV1 ovarian = test system: IGROV1 ovarian
U251 CNS = test system: U251 CNS
NCI-H460 lung = test system: NCI-H460 lung
HT29 colon = test system: HT29 colon
LOX IMVI melanoma = test system: LOX IMVI melanoma
SK-MEL-2 melanoma = test system: SK-MEL-2 melanoma
SK-MEL-28 melanoma = test system: SK-MEL-28 melanoma
A549 NSCLC = test system: A549 NSCLC
SW-620 colon = test system: SW-620 colon
HS 578T breast = test system: HS 578T breast
SF-295 CNS = test system: SF-295 CNS
SF-539 CNS = test system: SF-539 CNS
DU-145 prostate = test system: DU-145 prostate
UACC-257 melanoma = test system: UACC-257 melanoma
COLO 205 colon = test system: COLO 205 colon
NCI-H226 lung = test system: NCI-H226 lung
SF-268 CNS = test system: SF-268 CNS
UACC-62 melanoma = test system: UACC-62 melanoma
SNB-19 CNS = test system: SNB-19 CNS
ACHN renal = test system: ACHN renal
CAKI-1 renal = test system: CAKI-1 renal

## O=C(NC1CCCCC1)NS(=O)(=O)c1ccc(-n2nc3c(c2-c2cccs2)Cc2ccccc2-3)cc1
HCT-116 colon
  GI50: 31.7 µM
  TGI: > 100 µM
RXF 393 renal
  GI50: 29.2 µM
  TGI: 84.1 µM
RPMI-8226 leukemia
  GI50: 10.7 µM
  TGI: 30.6 µM
MDA-MB-231 breast
  GI50: 27.9 µM
  TGI: > 100 µM
SR leukemia
  GI50: 1.57 µM
  TGI: 4.01 µM
MCF7 breast
  GI50: > 100 µM
  TGI: > 100 µM
M14 melanoma
  GI50: 64.1 µM
  TGI: > 100 µM
SK-MEL-5 melanoma
  GI50: 18.7 µM
  TGI: 43 µM
HCC-2998 colon
  GI50: 6.63 µM
  TGI: 24.1 µM
NCI-H522 lung
  GI50: 12.3 µM
  TGI: 40.3 µM
OVCAR-4 ovarian
  GI50: 27 µM
  TGI: > 100 µM
OVCAR-8 ovarian
  GI50: 25.3 µM
  TGI: 90.5 µM
786-0 renal
  GI50: 32.3 µM
  TGI: > 100 µM
K-562 leukemia
  GI50: 10 µM
  TGI: 35 µM
BT-549 breast
  GI50: 33.7 µM
  TGI: 94.1 µM
OVCAR-3 ovarian
  GI50: 24.5 µM
  TGI: > 100 µM
PC-3 prostate
  GI50: 14.5 µM
  TGI: 31.7 µM
SK-OV-3 ovarian
  GI50: 44.5 µM
  TGI: > 100 µM
HCT-15 colon
  GI50: 17.8 µM
  TGI: 41 µM
HL-60(TB) leukemia
  GI50: 25 µM
  TGI: 48.8 µM
NCI-H23 lung
  GI50: 12.8 µM
  TGI: 33.8 µM
T-47D breast
  GI50: 39.7 µM
  TGI: > 100 µM
TK-10 renal
  GI50: 17.5 µM
  TGI: 34.9 µM
KM12 colon
  GI50: 34.9 µM
  TGI: > 100 µM
HOP-62 NSCLC
  GI50: > 100 µM
  TGI: > 100 µM
MDA-MB-435
  GI50: 32.5 µM
  TGI: > 100 µM
A498 renal
  GI50: 57.2 µM
  TGI: > 100 µM
CCRF-CEM leukemia
  GI50: 1.15 µM
  TGI: 3.79 µM
SN12C renal
  GI50: 21.5 µM
  TGI: 47.7 µM
SNB-75 CNS
  GI50: 52.5 µM
  TGI: > 100 µM
NCI/ADR-RES ovarian
  GI50: 20.4 µM
  TGI: 65.4 µM
UO-31 renal
  GI50: 15.4 µM
  TGI: 39.9 µM
OVCAR-5 ovarian
  GI50: 26.6 µM
  TGI: 68.6 µM
HOP-92 NSCLC
  GI50: 14.3 µM
  TGI: 29.6 µM
EKVX NSCLC
  GI50: 28.6 µM
  TGI: 65.4 µM
MOLT-4 leukemia
  GI50: 4.99 µM
  TGI: 37.8 µM
IGROV1 ovarian
  GI50: 4.12 µM
  TGI: 23 µM
U251 CNS
  GI50: 25.6 µM
  TGI: > 100 µM
NCI-H460 lung
  GI50: 93 µM
  TGI: > 100 µM
HT29 colon
  GI50: 34.3 µM
  TGI: > 100 µM
LOX IMVI melanoma
  GI50: 5.66 µM
  TGI: 33.5 µM
SK-MEL-2 melanoma
  GI50: 23.6 µM
  TGI: 64.7 µM
SK-MEL-28 melanoma
  GI50: 34.2 µM
  TGI: > 100 µM
A549 NSCLC
  GI50: 28 µM
  TGI: > 100 µM
SW-620 colon
  GI50: 20.7 µM
  TGI: > 100 µM
HS 578T breast
  GI50: 37.5 µM
  TGI: > 100 µM
SF-295 CNS
  GI50: 34.9 µM
  TGI: > 100 µM
SF-539 CNS
  GI50: 27.6 µM
  TGI: 61.8 µM
DU-145 prostate
  GI50: 31.9 µM
  TGI: > 100 µM
UACC-257 melanoma
  GI50: 24.8 µM
  TGI: 72.7 µM
COLO 205 colon
  GI50: 23.3 µM
  TGI: 51.1 µM
NCI-H226 lung
  GI50: 21.3 µM
  TGI: 64.9 µM
SF-268 CNS
  GI50: > 100 µM
  TGI: > 100 µM
UACC-62 melanoma
  GI50: 19.3 µM
  TGI: 53 µM
SNB-19 CNS
  GI50: 56.8 µM
  TGI: > 100 µM
ACHN renal
  GI50: 17.3 µM
  TGI: 33.6 µM
CAKI-1 renal
  GI50: 16 µM
  TGI: 44.4 µM
